Data set [1] relates to acetylcholinesterase (AChE). Further details: method as in PMID 10641971. Particulars: long-lasting, pseudo-irreversible inhibitor; ref [10]; cited from earlier work.
The nature of data set [2]: in vivo. Particulars: male, Wistar, rat, im.
Description: (§1) An analytical column (Waters Spherisorb S5 W (250 mm × 4.6 i.d.; 5 μm particle size)) with guard column (Waters Spherisorb S5 W (30 mm × 4.6 mm i.d.)) was used for the analysis. The mobile phase contained acetonitrile and 50 mM sodium dihydrogen phosphate (17:83; v/v). The pH was adjusted to 3.1 with phosphoric acid ([13]). The sample volume was 40 µL for plasma samples and 90 µL for brain-tissue samples. All chromatograms were obtained at a conditioned temperature (50 °C), and the flow rate was 1.3 mL/min ([13]).
(§2) Male adult Wistar rats (body weight 230 ± 30 g; Anlab Inc., Prague, Czech Republic) were used for pharmacokinetics study. The animals were kept under recommended conditions: standard laboratory food and tap water were available ad libitum. All experimental procedures and protocols were reviewed and approved by the Ethics Committee of the Faculty of Military Health Sciences, University of Defense, Hradec Kralove, Czech Republic. […] Blood samples were collected directly from the heart into heparinized 1.5 mL polythene tubes after 5, 15, 30, 45, 60, 120 and 240 min, and after 24 h (n = 6; six animals in each time interval). The samples were immediately centrifuged at 3000 ×g for 10 min (10 °C), and the plasma obtained was stored at −80 °C until analysis.
(§3) Standard noncompartmental analysis was performed using Kinetica software, version 4.0 (InnaPhase Corporation, Thermo Fisher Scientific Inc., Waltham, MA, USA). Maximum concentration (Cmax) and the time to the maximum concentration (Tmax) were determined directly from the observed data. The area under the mean plasma concentration–time curve from zero up to infinity (AUCtotal) was determined as the sum of the AUC0–24 h and of the extrapolated part, i.e. the ratio of the concentration predicted at the time interval of 24 h and the terminal rate constant λz. The λz was estimated using linear regression of the log-transformed concentrations at interval from 45 min to 24 h plotted against time. The half-life was calculated as t1/2 = ln(2)/λz. […]
Data set [3] is described as follows: in vivo. Particulars: male, Wistar, rat.
Description: as §1, §2
After perfusion, the skull was opened and the brain was checked visually and subsequently carefully removed; time intervals correspond with blood sampling (5, 15, 30, 45, 60, 120 and 240 min, and after 24 hours; n = 6; the same animals were used). All brains were stored at –80 °C until HPLC analysis ([15]).
Standard noncompartmental analysis was performed using Kinetica software, version 4.0 (InnaPhase Corporation, Thermo Fisher Scientific Inc., Waltham, MA, USA). Maximum concentration (Cmax) and the time to the maximum concentration (Tmax) were determined directly from the observed data. The area under the mean plasma concentration–time curve from zero up to infinity (AUCtotal) was determined as the sum of the AUC0–24 h and of the extrapolated part, i.e. the ratio of the concentration predicted at the time interval of 24 h and the terminal rate constant λz. The λz was estimated using linear regression of the log-transformed concentrations at interval from 45 min to 24 h plotted against time. The half-life was calculated as t1/2 = ln(2)/λz. Other statistical analysis was performed using GraphPad Prism, version 5.0 (GraphPad Software, San Diego, California, USA).
Brain tissues (whole brains) were mechanically crushed under liquid nitrogen. […] Eight-hundred microliter of supernatant was subjected to liquid-liquid extraction as previously described. All assessments were performed in triplicate.
Data set [4] is described as follows: Plasma pharmacokinetics after single i.m. injection in rats (HPLC-UV). The following applies: male, Wistar, rat, in vivo, im.
Description: as §1, §2, §3
For data set [5] the following is noted: human, 10 mg/day p.o., HPLC study, ref [7], cited from earlier work.

Like-named read-outs stand apart in the source and are kept apart here.

Take `CCN(C)C(=O)Oc1cccc([C@H](C)N(C)C)c1` [Rivastigmine]: in data set [1], the “duration of AChE inhibition” value is “up to 10 h”. Also, in data set [2], the CL/F was 690 ± 30 mL/min/kg and the MRT was 43.4 min. In data set [3], the Kp at 0 min stood at 0, the Kp at 5 min worked out at 1.74, the Kp at 15 min came out at 1.48 and the Kp at 30 min came to 1.7. In data set [3], the Kp at 45 min came to 1.15, the Kp at 60 min is 1.13, the Kp at 120 min came to 0.176 and the Kp at 240 min turned out to be 0. Moreover, in data set [3], the Kp at 24 h was found to be 0, the concentration at 0 min came out at 0 ng/mL, the concentration at 5 min stood at 5.23 ± 0.76 ng/mL and the concentration at 15 min stood at 4.92 ± 0.62 ng/mL. In data set [3], this compound gave a concentration at 30 min of 4.72 ± 0.51 ng/mL, a concentration at 45 min of 2.73 ± 0.32 ng/mL, a concentration at 60 min of 2.24 ± 0.22 ng/mL and a concentration at 120 min of 0.03 ± 0.02 ng/mL. Also, in data set [3], the concentration at 240 min is 0 ng/mL and the concentration at 24 h was found to be 0 ng/mL. The Vd/F in data set [4] was determined as 19.8 ± 3.87 L/kg.
With `COc1cc2c(cc1OC)C(=O)C(CC1CCN(Cc3ccccc3)CC1)C2` (stereo not drawn) [Donepezil], the CSF concentration in data set [5] (12 h after application) is 5.2 ng/mL; in data set [5] (after 24 h), 7.5 ng/mL.

What is called CL/F is the apparent clearance, not corrected for the fraction that reaches the circulation. As usually defined, the MRT is a mean duration of stay, worked out from the concentration-time curve. In general, Vd/F refers to the apparent distribution volume after extravascular dosing.

Source of the values: article PMC7758017 (Iranian Journal of Pharmaceutical Research : IJPR, 2020).
